Measured values reported in PubChem BioAssay (NCI).
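Following 48 hours of exposure in 96-well plates, responses at five concentrations were used to interpolate endpoints linearly. GI50: concentration for 50% inhibition of growth. Definition used: TGI = concentration required for complete inhibition of growth.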

Experiments:
Assay in all cases: DTP human tumour cell line panel, 48 h
[1] = test system: T-47D breast
[2] = test system: CCRF-CEM leukemia
[3] = test system: IGROV1 ovarian
[4] = test system: OVCAR-3 ovarian
[5] = test system: NCI-H460 lung
[6] = test system: SW-620 colon
[7] = test system: HL-60(TB) leukemia
[8] = test system: SK-MEL-28 melanoma
[9] = test system: PC-3 prostate
[10] = test system: LXFL 529 NSCLC
[11] = test system: MCF7 breast
[12] = test system: DMS 273 small cell lung
[13] = test system: TK-10 renal
[14] = test system: CAKI-1 renal
[15] = test system: NCI-H522 lung
[16] = test system: OVCAR-4 ovarian
[17] = test system: SF-295 CNS
[18] = test system: HCT-15 colon
[19] = test system: LOX IMVI melanoma
[20] = test system: DLD-1 colon
[21] = test system: UACC-257 melanoma
[22] = test system: HS 578T breast
[23] = test system: 786-0 renal
[24] = test system: SNB-75 CNS
[25] = test system: MDA-MB-231 breast
[26] = test system: HT29 colon
[27] = test system: ACHN renal
[28] = test system: A549 NSCLC
[29] = test system: MALME-3M melanoma
[30] = test system: MDA-N
[31] = test system: KM12 colon
[32] = test system: DMS 114 small cell lung
[33] = test system: HOP-18 NSCLC
[34] = test system: SN12C renal
[35] = test system: COLO 205 colon
[36] = test system: HCT-116 colon
[37] = test system: RXF 393 renal
[38] = test system: SF-268 CNS
[39] = test system: OVCAR-8 ovarian
[40] = test system: MDA-MB-435
[41] = test system: OVCAR-5 ovarian
[42] = test system: BT-549 breast
[43] = test system: RPMI-8226 leukemia
[44] = test system: SF-539 CNS
[45] = test system: M14 melanoma
[46] = test system: SK-MEL-5 melanoma
[47] = test system: SNB-78 CNS
[48] = test system: SNB-19 CNS
[49] = test system: DU-145 prostate
[50] = test system: A498 renal
[51] = test system: HOP-92 NSCLC
[52] = test system: SR leukemia
[53] = test system: MOLT-4 leukemia
[54] = test system: KM20L2 colon
[55] = test system: NCI/ADR-RES ovarian
[56] = test system: SK-OV-3 ovarian
[57] = test system: NCI-H226 lung
[58] = test system: U251 CNS
[59] = test system: UO-31 renal
[60] = test system: UACC-62 melanoma
[61] = test system: EKVX NSCLC
[62] = test system: SK-MEL-2 melanoma
[63] = test system: HCC-2998 colon
[64] = test system: K-562 leukemia
[65] = test system: NCI-H23 lung
[66] = test system: HOP-62 NSCLC

How did the TGI [1] turn out when `O=C1C=C(Nc2cccnc2)c2ccccc2C1=O` was run?
The TGI was 43.8 µM.

What about the TGI [2] of the same compound?
The TGI was 51.9 µM.

What about the TGI [3] of the same compound?
Its TGI is 18.7 µM.

What about the TGI [4] of the same compound?
The TGI was 11.6 µM.

And the TGI [5]?
The TGI was 12.5 µM.

What about the TGI [6] of the same compound?
The TGI was 18.7 µM.

And the TGI [7]?
The TGI was 23 µM.

What about the TGI [8] of the same compound?
Its TGI is 13.5 µM.

And the TGI [9]?
Its TGI is 52.4 µM.

And the TGI [10]?
The TGI was greater than 51.3 µM.

What about the TGI [11] of the same compound?
Its TGI is 8.2 µM.

What about the TGI [12] of the same compound?
The TGI was greater than 39.6 µM.

What about the TGI [13] of the same compound?
The TGI was 34.5 µM.

What about the TGI [14] of the same compound?
The TGI was 18.6 µM.

And the TGI [15]?
Its TGI is 15.5 µM.

And the TGI [16]?
Its TGI is 19.9 µM.

What about the TGI [17] of the same compound?
The TGI was 9.09 µM.

And the TGI [18]?
The TGI was 29.3 µM.

And the TGI [19]?
Its TGI is 9.9 µM.

And the TGI [20]?
Its TGI is 20 µM.

And the TGI [21]?
The TGI was 4.48 µM.

What about the TGI [22] of the same compound?
Its TGI is 8.33 µM.

And the TGI [23]?
The TGI was 23.8 µM.

And the TGI [24]?
Its TGI is 5.45 µM.

What about the TGI [25] of the same compound?
The TGI was 20.4 µM.

And the TGI [26]?
Its TGI is 33.7 µM.

What about the TGI [27] of the same compound?
Its TGI is 20.5 µM.

What about the TGI [28] of the same compound?
Its TGI is 13.3 µM.

What about the TGI [29] of the same compound?
The TGI was 5.35 µM.

And the TGI [30]?
The TGI was 1.42 µM.

And the TGI [31]?
The TGI was 23.4 µM.

What about the TGI [32] of the same compound?
Its TGI is 5.01 µM.

What about the TGI [33] of the same compound?
The TGI was 22 µM.

What about the TGI [34] of the same compound?
The TGI was 21.5 µM.

What about the TGI [35] of the same compound?
The TGI was 38.6 µM.

What about the TGI [36] of the same compound?
Its TGI is 25.6 µM.

And the TGI [37]?
Its TGI is 38 µM.

And the TGI [38]?
The TGI was 20.9 µM.

And the TGI [39]?
The TGI was 23.1 µM.

What about the TGI [40] of the same compound?
The TGI was 1.39 µM.

What about the TGI [41] of the same compound?
The TGI was 18.4 µM.

And the TGI [42]?
Its TGI is 3.83 µM.

What about the TGI [43] of the same compound?
Its TGI is 51.3 µM.

And the TGI [44]?
The TGI was 8.41 µM.

What about the TGI [45] of the same compound?
The TGI was 6.76 µM.

What about the TGI [46] of the same compound?
The TGI was 2.58 µM.

And the TGI [47]?
Its TGI is 38 µM.

And the TGI [48]?
The TGI was 24.8 µM.

What about the TGI [49] of the same compound?
The TGI was 14.1 µM.

And the TGI [50]?
Its TGI is 22.3 µM.

And the TGI [51]?
Its TGI is 27.1 µM.

What about the TGI [52] of the same compound?
Its TGI is 37 µM.

What about the TGI [53] of the same compound?
Its TGI is 46.6 µM.

What about the TGI [54] of the same compound?
The TGI was greater than 62.3 µM.

What about the TGI [55] of the same compound?
Its TGI is 23.9 µM.

What about the TGI [56] of the same compound?
Its TGI is 22.1 µM.

And the TGI [57]?
The TGI was 38.1 µM.

And the TGI [58]?
The TGI was 24.4 µM.

And the TGI [59]?
The TGI was 24.2 µM.

What about the TGI [60] of the same compound?
The TGI was 3.31 µM.

And the TGI [61]?
The TGI was 26.7 µM.

And the TGI [62]?
The TGI was 25.1 µM.

And the TGI [63]?
The TGI was 30.5 µM.

What about the TGI [64] of the same compound?
The TGI was 22.7 µM.

What about the TGI [65] of the same compound?
The TGI was 9.41 µM.

What about the TGI [66] of the same compound?
The TGI was 12.9 µM.

What does the source list for `CC(C)CC(=O)[O-].CC(C)CC(=O)[O-].N.N.N.N.[Co+3].[O-][Cl+3]([O-])([O-])O.[O-][Cl+3]([O-])([O-])[O-]`?
GI50 [2]: > 100 µM; TGI [2]: > 100 µM; GI50 [3]: > 100 µM; TGI [3]: > 100 µM; GI50 [6]: > 100 µM; TGI [6]: > 100 µM; GI50 [7]: > 100 µM; TGI [7]: > 100 µM; GI50 [8]: > 100 µM; TGI [8]: > 100 µM; GI50 [10]: > 100 µM; TGI [10]: > 100 µM; GI50 [13]: > 100 µM; TGI [13]: > 100 µM; GI50 [17]: > 100 µM; TGI [17]: > 100 µM; GI50 [18]: > 100 µM; TGI [18]: > 100 µM; GI50 [19]: > 100 µM; TGI [19]: > 100 µM; GI50 [20]: > 100 µM; TGI [20]: > 100 µM; GI50 [21]: > 100 µM; TGI [21]: > 100 µM; GI50 [23]: > 100 µM; TGI [23]: > 100 µM; GI50 [24]: > 100 µM; TGI [24]: > 100 µM; GI50 [27]: > 100 µM; TGI [27]: > 100 µM; GI50 [28]: > 100 µM; TGI [28]: > 100 µM; GI50 [29]: > 100 µM; TGI [29]: > 100 µM; GI50 [31]: > 100 µM; TGI [31]: > 100 µM; GI50 [33]: > 100 µM; TGI [33]: > 100 µM; GI50 [34]: > 100 µM; TGI [34]: > 100 µM; GI50 [35]: > 100 µM; TGI [35]: > 100 µM; GI50 [37]: > 100 µM; TGI [37]: > 100 µM; GI50 [38]: > 100 µM; TGI [38]: > 100 µM; GI50 [39]: > 100 µM; TGI [39]: > 100 µM; GI50 [41]: > 100 µM; TGI [41]: > 100 µM; GI50 [43]: > 100 µM; TGI [43]: > 100 µM; GI50 [44]: > 100 µM; TGI [44]: > 100 µM; GI50 [45]: > 100 µM; TGI [45]: > 100 µM; GI50 [47]: > 100 µM; TGI [47]: > 100 µM; GI50 [48]: > 100 µM; TGI [48]: > 100 µM; GI50 [51]: > 100 µM; TGI [51]: > 100 µM; GI50 [52]: > 100 µM; TGI [52]: > 100 µM; GI50 [53]: > 100 µM; TGI [53]: > 100 µM; GI50 [56]: > 100 µM; TGI [56]: > 100 µM; GI50 [57]: > 100 µM; TGI [57]: > 100 µM; GI50 [59]: > 100 µM; TGI [59]: > 100 µM; GI50 [60]: > 100 µM; TGI [60]: > 100 µM; GI50 [61]: > 100 µM; TGI [61]: > 100 µM; GI50 [62]: > 100 µM; TGI [62]: > 100 µM; GI50 [63]: > 100 µM; TGI [63]: > 100 µM; GI50 [64]: > 100 µM; TGI [64]: > 100 µM; GI50 [65]: > 100 µM; TGI [65]: > 100 µM
